Test results taken from PubChem BioAssay AID2337 (Sanford-Burnham Center for Chemical Genomics, 2010).

Test system: TNFa-induced NF-kB reporter cells, inhibition
Assay: analog potency on TNFa NF-kB signaling – cell-based, revised, SAR follow-up (AID 2337)

IC50 [µM] | Compound
3.15 | CC1Sc2ccc(S(=O)(=O)N3CCC(C(=O)Nc4ccc(Cl)cc4)CC3)cc2NC1=O (configuration not stated)
19.7 | O=C(Nc1nc2c(F)cc(F)cc2s1)c1ccc([N+](=O)[O-])o1
